We go through one compound from US20210220489A1, “AMYGDALAR NEURAL ENSEMBLE THAT ENCODES THE UNPL[…] PAIN” (The Board of Trustees of the Leland Stanford Junior …, priority 2020, published 2021).

In one assay the test system is noci-TRAP^hM4 mice. As to the kind of experiment: Reflexive and affective-motivational pain behaviors after chemogenetic inhibition of the BLA nociceptive ensemble. Conditions: CNO 10 mg/kg; mechanical and thermal noxious stimuli. Format: in vivo. As to the method: We habituated mice to a first testing room (room-A) for three consecutive days. Execution of all TRAP procedures occurred in Room-A. During these habituation days, no nociceptive stimuli were delivered, and no baseline thresholds were measured (i.e., mice were naïve to pain experience before the TRAP procedure). In room-A, we placed individual mice within red plastic cylinders (10.16-cm D), with a red lid, on a raised perforated, flat metal platform (60.96-cm H). […] This stimulus frequency was selected to closely match the protocols used in the microendoscope imaging experiments in which significant Ca^2+ transients were reliably detected in BLA Camk2a+ neurons. […]
To evaluate mechanical reflexive sensitivity, we used a logarithmically increasing set of 8 von Frey filaments (Stoelting), ranging in gram force from 0.07- to 6.0-g (93). […] Using the Up-Down statistical method, the 50% withdrawal mechanical threshold scores were calculated for each mouse and then averaged across the experimental groups. The response frequency was calculated as the number of positive responses out of 10 stimulations, delivered at 30-s intervals. […]

The test system of a further assay is control neuropathic mice. Briefly: Pain behaviors in control neuropathic mice not expressing hM4-mCherry in the BLA. Format: in vivo. Conditions: absence of hM4 expression, CNO 10 mg/kg, morphine as positive control. The text has this:
To induce a chronic pain state, we used a modified version of the Spared Nerve Injury (SNI) model of neuropathic pain, as previously described (70). This model entails surgical section of two of the sciatic nerve branches (common peroneal and tibial branches) while sparing the third (sural branch). […] To perform this peripheral nerve injury procedure, anesthesia was induced and maintained throughout surgery with isoflurane (4% induction, 1.5% maintenance in oxygen). The left hind leg was shaved and wiped clean with alcohol and betadine. We made a 1-cm incision in the skin of the mid-dorsal thigh, approximately where the sciatic nerve trifurcates. The biceps femoris and semimembranosus muscles were gently separated from one another with blunt scissors, thereby creating a <1-cm opening between the muscle groups to expose the common peroneal, tibial, and sural branches of the sciatic nerve. Next, −2 mm of both the common peroneal and tibial nerves were transected and removed, without suturing and with care not to distend the sural nerve. The leg muscles are left uncultured and the skin was closed with tissue adhesive (3M Vetbond), followed by a Betadine application. During recovery from surgery, mice were placed under a heat lamp until awake and achieved normal balanced movement. Mice were then returned to their home cage and closely monitored over the following three days for well-being.
To evaluate mechanical reflexive sensitivity, we used a logarithmically increasing set of 8 von Frey filaments (Stoelting), ranging in gram force from 0.07- to 6.0-g (93). These filaments were applied perpendicular to the plantar hindpaw with sufficient force to cause a slight bending of the filament. […] Using the Up-Down statistical method, the 50% withdrawal mechanical threshold scores were calculated for each mouse and then averaged across the experimental groups. The response frequency was calculated as the number of positive responses out of 10 stimulations, delivered at 30-s intervals.
To evaluate affective-motivational responses evoked by thermal stimulation (81), we applied either a single, unilateral 50-μL drop of water (5, 30, or 55° C.) or acetone (evaporative cooling) to the left hindpaw, and the duration of attending behavior was collected for up to 60 s after the stimulation. […] The track was subdivided into 25 temperature zones (4.8-cm D per zone), and we assessed the temperature at the center of each zone by a K-probe thermocouple. […] A video camera placed above the track recorded the position of the mouse within the temperature zones, and videos were later analyzed using a video-tracking software (Etho-vision, Noldus) for duration of zone occupancy, zone visits, distance, velocity, and acceleration.

For `C[N+]1([O-])CCN(C2=Nc3cc(Cl)ccc3Nc3ccccc32)CC1` [CNO, clozapine-N-oxide], the “attending and escape behaviors” value with noci-TRAP^hM4 mice is recorded as “significantly reduced”. The affective-motivational behaviors entry in the assay with control neuropathic mice (acetone drop) is reported as “Lack of effect”. The reflex behaviors result in the assay with control neuropathic mice (von Frey filaments) was “Lack of effect”.
